From ChEMBL document CHEMBL5653615 (J Biol Chem, 2013)

Key:
[1] = target: Serine/threonine-protein kinase N1 (Homo sapiens) (UniProt Q16512); assay: Inhibition of human PRK1 at 500 nM by HotSpot assay relative to control
[2] = target: T1, Serine/threonine-protein kinase Sgk3 (Homo sapiens) (UniProt Q96BR1); assay: Inhibition of human SGKL at 500 nM by HotSpot assay relative to control
T1 sequence (whole entry): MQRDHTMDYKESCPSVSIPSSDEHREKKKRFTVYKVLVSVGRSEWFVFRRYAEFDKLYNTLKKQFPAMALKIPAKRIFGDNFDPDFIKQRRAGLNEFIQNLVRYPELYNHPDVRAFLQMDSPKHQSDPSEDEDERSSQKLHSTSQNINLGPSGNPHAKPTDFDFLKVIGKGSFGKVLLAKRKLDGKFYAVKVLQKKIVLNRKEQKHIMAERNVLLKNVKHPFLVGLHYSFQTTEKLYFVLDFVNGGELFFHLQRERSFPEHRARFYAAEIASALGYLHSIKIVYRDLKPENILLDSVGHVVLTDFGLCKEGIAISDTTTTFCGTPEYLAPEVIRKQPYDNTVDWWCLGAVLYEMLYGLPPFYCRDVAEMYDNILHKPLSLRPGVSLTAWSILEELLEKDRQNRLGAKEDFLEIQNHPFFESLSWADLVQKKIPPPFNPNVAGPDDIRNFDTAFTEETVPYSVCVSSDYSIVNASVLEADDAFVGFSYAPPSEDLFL

[3] = target: T2, Serine/threonine-protein kinase VRK1 (Homo sapiens) (UniProt Q99986); assay: Inhibition of human VRK1 at 500 nM by HotSpot assay relative to control
T2 sequence (whole entry): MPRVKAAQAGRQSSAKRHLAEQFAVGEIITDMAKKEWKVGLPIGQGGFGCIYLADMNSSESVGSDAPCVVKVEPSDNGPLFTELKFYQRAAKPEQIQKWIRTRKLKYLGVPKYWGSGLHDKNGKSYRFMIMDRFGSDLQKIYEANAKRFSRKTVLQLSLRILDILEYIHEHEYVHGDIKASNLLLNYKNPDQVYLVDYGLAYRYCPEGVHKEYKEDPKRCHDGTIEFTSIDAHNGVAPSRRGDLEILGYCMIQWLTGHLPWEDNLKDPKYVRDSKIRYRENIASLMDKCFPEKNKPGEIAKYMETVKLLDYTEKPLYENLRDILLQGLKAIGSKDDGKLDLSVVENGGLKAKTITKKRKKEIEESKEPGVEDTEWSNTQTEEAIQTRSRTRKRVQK

[4] = target: T3, Tyrosine-protein kinase TXK (Homo sapiens) (UniProt P42681); assay: Inhibition of human TXK at 500 nM by HotSpot assay relative to control
T3 sequence (whole entry): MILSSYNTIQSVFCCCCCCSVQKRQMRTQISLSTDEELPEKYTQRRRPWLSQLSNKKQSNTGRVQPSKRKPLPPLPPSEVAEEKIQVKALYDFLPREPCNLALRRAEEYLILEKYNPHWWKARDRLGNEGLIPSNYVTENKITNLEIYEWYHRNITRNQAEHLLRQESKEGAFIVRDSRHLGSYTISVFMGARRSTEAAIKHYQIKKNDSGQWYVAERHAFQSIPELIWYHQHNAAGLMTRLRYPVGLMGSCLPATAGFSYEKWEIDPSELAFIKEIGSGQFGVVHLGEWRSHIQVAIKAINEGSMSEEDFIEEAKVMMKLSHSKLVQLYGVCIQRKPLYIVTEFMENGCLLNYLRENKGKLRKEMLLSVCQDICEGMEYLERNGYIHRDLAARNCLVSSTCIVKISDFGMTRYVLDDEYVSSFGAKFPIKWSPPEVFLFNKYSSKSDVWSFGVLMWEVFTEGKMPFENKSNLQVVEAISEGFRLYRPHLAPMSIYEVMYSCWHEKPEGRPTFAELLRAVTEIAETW

[5] = target: T4, Ephrin type-B receptor 1 (Homo sapiens) (UniProt P54762); assay: Inhibition of human EPHB1 at 500 nM by HotSpot assay relative to control
T4 sequence (whole entry): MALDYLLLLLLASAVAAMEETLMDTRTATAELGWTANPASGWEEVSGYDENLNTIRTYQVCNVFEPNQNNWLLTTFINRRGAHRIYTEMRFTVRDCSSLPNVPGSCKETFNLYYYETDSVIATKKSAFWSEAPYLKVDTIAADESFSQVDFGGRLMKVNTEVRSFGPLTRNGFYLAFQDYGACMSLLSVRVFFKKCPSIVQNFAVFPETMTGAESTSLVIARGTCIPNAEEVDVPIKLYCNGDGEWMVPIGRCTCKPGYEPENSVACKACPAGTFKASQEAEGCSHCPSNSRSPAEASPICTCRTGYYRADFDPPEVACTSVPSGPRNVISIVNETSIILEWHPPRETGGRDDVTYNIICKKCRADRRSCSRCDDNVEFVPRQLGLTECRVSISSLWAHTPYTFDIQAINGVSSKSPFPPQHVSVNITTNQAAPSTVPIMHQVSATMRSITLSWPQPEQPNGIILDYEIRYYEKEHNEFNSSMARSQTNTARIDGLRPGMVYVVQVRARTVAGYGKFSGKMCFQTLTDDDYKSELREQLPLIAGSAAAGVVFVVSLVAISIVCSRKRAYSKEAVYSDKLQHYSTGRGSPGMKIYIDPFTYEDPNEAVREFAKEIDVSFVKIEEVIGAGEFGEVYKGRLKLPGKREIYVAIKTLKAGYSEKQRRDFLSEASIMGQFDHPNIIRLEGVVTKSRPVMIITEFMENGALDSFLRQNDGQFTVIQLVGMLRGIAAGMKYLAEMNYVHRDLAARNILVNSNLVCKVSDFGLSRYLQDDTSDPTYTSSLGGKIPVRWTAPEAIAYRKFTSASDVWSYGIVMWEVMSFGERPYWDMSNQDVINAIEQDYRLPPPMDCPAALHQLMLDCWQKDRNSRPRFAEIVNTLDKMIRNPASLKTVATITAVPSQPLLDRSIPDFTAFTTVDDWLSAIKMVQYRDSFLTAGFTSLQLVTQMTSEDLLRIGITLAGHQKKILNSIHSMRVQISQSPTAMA

[6] = target: Dual specificity tyrosine-phosphorylation-regulated kinase 1A (Homo sapiens) (UniProt Q13627); assay: Inhibition of human DYRK1 at 500 nM by HotSpot assay relative to control
[7] = target: Mitogen-activated protein kinase kinase kinase 11 (Homo sapiens) (UniProt Q16584); assay: Inhibition of human MAP3K11 at 500 nM by HotSpot assay relative to control
[8] = target: Serine/threonine-protein kinase Nek4 (Homo sapiens) (UniProt P51957); assay: Inhibition of human NEK4 at 500 nM by HotSpot assay relative to control
[9] = target: Casein kinase I isoform gamma-3 (Homo sapiens) (UniProt Q9Y6M4); assay: Inhibition of human CK1g3 at 500 nM by HotSpot assay relative to control
[10] = target: Tyrosine-protein kinase receptor UFO (Homo sapiens) (UniProt P30530); assay: Inhibition of human AXL at 500 nM by HotSpot assay relative to control
Tyrosine-protein kinase receptor UFO (Homo sapiens), sequence (P30530 whole entry): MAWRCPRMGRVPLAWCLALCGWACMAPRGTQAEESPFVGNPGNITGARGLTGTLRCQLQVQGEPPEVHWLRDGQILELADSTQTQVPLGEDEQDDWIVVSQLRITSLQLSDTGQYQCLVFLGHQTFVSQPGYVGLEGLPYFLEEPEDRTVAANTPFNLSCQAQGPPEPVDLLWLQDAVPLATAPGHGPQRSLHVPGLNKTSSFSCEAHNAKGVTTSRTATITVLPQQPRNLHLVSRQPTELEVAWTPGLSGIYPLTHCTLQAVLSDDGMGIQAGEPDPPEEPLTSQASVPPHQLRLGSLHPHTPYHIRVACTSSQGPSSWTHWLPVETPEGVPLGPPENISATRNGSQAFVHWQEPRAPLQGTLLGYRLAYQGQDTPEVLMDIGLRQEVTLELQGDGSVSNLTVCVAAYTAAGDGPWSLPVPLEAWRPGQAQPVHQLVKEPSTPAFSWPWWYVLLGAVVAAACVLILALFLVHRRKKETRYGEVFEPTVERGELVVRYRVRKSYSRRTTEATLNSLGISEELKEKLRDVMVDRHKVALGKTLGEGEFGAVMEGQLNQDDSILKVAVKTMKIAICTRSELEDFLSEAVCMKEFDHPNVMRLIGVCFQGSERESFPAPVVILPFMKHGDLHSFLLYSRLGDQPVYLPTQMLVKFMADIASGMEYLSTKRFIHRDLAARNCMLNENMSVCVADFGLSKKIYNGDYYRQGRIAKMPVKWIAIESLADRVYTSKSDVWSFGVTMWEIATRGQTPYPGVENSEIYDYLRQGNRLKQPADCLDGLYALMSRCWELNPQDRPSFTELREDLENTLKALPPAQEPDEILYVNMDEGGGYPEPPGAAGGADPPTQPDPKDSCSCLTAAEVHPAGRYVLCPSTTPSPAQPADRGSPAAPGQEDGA

Casein kinase I isoform gamma-3 (Homo sapiens), sequence (Q9Y6M4 whole entry, looked up, canonical isoform): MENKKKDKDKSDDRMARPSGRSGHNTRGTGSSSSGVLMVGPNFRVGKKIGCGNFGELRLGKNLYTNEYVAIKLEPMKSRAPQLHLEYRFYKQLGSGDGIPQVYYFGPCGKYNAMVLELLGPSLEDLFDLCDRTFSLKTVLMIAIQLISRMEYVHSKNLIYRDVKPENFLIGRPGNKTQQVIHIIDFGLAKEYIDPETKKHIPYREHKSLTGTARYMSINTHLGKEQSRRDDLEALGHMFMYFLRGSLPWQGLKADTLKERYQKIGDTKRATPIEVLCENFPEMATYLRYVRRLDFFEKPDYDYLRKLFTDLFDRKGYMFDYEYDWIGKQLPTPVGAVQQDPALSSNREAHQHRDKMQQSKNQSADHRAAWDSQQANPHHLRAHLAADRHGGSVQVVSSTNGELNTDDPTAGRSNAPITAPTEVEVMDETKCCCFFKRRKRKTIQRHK
Serine/threonine-protein kinase N1 (Homo sapiens), sequence (Q16512 2-942 limits assumed): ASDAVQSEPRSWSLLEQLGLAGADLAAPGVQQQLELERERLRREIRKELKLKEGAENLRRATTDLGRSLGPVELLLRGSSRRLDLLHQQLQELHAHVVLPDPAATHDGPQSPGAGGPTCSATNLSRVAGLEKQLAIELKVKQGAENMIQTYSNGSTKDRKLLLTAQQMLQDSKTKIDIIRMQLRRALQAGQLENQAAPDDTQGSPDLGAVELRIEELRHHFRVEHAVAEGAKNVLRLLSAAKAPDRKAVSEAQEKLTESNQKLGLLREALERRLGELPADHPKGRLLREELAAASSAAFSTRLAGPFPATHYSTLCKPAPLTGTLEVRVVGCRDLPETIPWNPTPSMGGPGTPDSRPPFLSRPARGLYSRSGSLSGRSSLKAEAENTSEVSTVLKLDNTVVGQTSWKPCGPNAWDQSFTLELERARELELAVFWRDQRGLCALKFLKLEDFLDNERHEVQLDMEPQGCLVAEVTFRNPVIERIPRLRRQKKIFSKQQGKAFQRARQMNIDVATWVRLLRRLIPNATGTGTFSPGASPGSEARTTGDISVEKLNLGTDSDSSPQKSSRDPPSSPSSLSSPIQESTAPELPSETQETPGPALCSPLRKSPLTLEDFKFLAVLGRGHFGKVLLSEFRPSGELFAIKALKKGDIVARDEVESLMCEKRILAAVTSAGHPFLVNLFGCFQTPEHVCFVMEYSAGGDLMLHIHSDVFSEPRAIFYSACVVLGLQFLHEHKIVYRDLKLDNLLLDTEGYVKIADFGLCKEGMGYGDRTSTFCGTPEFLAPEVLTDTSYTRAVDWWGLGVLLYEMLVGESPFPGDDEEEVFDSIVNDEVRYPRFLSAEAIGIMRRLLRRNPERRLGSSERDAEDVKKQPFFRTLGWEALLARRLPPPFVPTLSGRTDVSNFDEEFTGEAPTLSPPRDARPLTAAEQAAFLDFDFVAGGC
Mitogen-activated protein kinase kinase kinase 11 (Homo sapiens), sequence (Q16584 whole entry, looked up): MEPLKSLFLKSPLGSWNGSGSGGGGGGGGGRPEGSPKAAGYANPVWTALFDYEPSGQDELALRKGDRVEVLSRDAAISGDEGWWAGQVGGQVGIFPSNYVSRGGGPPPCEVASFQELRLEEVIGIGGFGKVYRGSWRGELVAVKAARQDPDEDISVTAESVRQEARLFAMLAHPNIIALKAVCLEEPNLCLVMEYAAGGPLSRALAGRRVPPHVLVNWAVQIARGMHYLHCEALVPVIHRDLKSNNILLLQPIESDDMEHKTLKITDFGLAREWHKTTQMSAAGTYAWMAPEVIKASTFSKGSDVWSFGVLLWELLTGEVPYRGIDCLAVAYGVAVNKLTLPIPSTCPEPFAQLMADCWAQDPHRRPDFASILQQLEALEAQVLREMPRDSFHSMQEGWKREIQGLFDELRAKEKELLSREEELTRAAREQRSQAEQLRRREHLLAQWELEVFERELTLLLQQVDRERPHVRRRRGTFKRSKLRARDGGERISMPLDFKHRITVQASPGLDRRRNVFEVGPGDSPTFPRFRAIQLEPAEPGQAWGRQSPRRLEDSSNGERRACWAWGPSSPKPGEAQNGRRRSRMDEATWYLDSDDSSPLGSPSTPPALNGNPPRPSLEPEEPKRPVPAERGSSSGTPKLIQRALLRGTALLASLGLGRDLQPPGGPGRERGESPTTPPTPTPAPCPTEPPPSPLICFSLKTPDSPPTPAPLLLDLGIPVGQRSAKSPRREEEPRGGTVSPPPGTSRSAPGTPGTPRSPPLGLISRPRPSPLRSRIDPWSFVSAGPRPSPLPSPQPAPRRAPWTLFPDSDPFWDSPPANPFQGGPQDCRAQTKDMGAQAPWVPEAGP
Serine/threonine-protein kinase Nek4 (Homo sapiens), sequence (P51957 whole entry, looked up, canonical isoform): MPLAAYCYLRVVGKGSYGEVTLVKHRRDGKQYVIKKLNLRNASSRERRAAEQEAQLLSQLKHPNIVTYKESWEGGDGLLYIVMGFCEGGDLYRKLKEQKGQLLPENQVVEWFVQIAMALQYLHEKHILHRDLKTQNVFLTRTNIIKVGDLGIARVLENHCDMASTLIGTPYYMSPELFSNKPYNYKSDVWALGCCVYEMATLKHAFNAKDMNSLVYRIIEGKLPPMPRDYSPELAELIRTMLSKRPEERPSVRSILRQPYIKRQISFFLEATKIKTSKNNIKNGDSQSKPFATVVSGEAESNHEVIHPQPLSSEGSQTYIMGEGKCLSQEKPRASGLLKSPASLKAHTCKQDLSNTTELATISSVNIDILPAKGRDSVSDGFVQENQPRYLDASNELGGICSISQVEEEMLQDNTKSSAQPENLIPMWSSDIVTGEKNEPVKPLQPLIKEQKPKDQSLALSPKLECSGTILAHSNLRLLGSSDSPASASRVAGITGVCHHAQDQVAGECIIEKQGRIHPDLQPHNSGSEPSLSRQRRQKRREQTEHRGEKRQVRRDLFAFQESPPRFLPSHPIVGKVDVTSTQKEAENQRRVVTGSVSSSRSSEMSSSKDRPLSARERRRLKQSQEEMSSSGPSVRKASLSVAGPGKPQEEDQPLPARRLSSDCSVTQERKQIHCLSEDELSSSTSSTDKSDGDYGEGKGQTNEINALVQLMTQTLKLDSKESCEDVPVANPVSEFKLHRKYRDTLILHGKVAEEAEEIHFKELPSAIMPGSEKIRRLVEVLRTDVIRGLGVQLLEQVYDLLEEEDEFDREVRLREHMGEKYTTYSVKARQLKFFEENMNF

Compound | inhibition [1] | inhibition [2] | inhibition [3] | inhibition [4] | inhibition [5] | inhibition [6] | inhibition [7] | inhibition [8] | inhibition [9] | inhibition [10]
Oc1n[nH]c2nnc(-c3c(-c4ccccc4)nn4ccccc34)cc12 | -0.85% | 0.31% | 0.57% | 2.55% | 2.52% | -2.58% | 2.87% | 5.04% | -4.44% | -1.44%
Nc1n[nH]c2nnc(-c3c(-c4ccccc4)nn4ccccc34)cc12 | 1.8% | 9.81% | 7.83% | 11.2% | 1.38% | -1.99% | 5.68% | 11.6% | 6.29% | 0.88%
